Results from US20150133390A1, “Identification of New Therapeutic Uses for Known Therapeutic Agents” (The Board of Trustees of the Leland Stanford Junior …, priority 2012, published 2015).
“Also recorded” adds a separate entry of the source.

How the values were obtained:
[1] = system: FVB donor hearts implanted into C57BL/6 WT mice (cardiac allograft); assay: Graft survival in murine heterotopic cardiac transplant model of acute rejection; assay type: in vivo, mouse; settings: for allograft survival compared to untreated AR / Median survival: FVB-to-C57BL/6 cardiac transplant; for allograft survival compared to untreated AR: 6 pairs per group; for Median survival: atorvastatin 75 and dasatinib 25 mg/kg/day oral gavage, cyclosporine 20 mg/kg/day i.p., followed to POD 30, untreated AR 10 days
Procedure: (§1) FVB donor hearts were implanted into the abdomen of C57BL/6 WT mice representing a complete MHC mismatch, as described previously. […] Animal activity, body weight and graft viability (abdominal palpation) were assessed daily.
(§2) Before oral gavages of Atorvastatin and Dasatinib, aliquots were mixed thoroughly. Unused formulations were discarded. Treatment started the day prior to transplantation and lasted until the day before sacrifice at post operation day 7 by exsanguination. Grafts were harvested and divided into three equal parts for downstream analyses.
Graft viability (abdominal palpation) were assessed daily for these animals until post operation day 30.

[2] = system: graft infiltrating cells in cardiac allograft; assay: Graft histology / immunohistochemistry of infiltrating cells at POD 7; assay type: in vivo, mouse; settings: for number of infiltrating cells (immunohistochemistry): POD 7, compared to untreated AR
Procedure: as §1, §2
One third of the explanted allograft heart (POD7) was immediately fixed in […] buffered formalin, embedded in paraffin and subsequently stained with hematoxylin and eosin for histological assessment of tissue according to standard protocols. Pictures of the graft tissue were taken at 10× magnification using a Nikon E600 light microscope (Nikon Instruments Inc., Melville, N.Y.) and Spot V4.6 imaging software (Spot Imaging, Sterling Heights, Mich.).

[3] = system: infiltrating cell subsets in cardiac allografts; assay: Flow cytometry count of infiltrating cell subsets in cardiac allografts; assay type: in vivo, mouse; settings: for number of infiltrating B220+ B cells compared to cyclosporine: POD 7, compared to cyclosporine group; for number of CD45+ infiltrating cells / number of infiltrating B220+ B cells / number of infiltrating CD4+ T cells / number of infiltrating CD8+ T cells / number of infiltrating CD11c+ dendritic cells / number of infiltrating F4/80+ macrophages / number of infiltrating NK1.1+ natural killer cells: POD 7, compared to untreated AR
Procedure: as §1, §2
Fluorescein isothiocyanate (FITC), phycoerythin (PE), or allophycocyanin-conjugated mAbs specific for mouse CD4 (GK1.5), CD8a (53-6.7), F4/80 (BM8), B220 (RA3-6B2), Gr1 (RB6-8C5), CD11c (N418), NK1.1 (PK136), CD45 (30-F11), and their isotype controls were purchased from BD Biosciences (San Jose, Calif.), eBioscience (San Diego, Calif.), or BioLegend (San Diego, Calif.). Immediately after graft explantation at day 7 post transplantation, one third of the cardiac allograft was homogenized in RPMI 1640 media with 2 mg/mL Collagenase D (Worthington Bio) and 10% FCS for 2 h at RT. Cells were first incubated with normal hamster serum, normal mouse serum (Jackson ImmunoResearch), and 5 μg/ml anti-CD16/32 mAb (2.4G2; BD Bioscience), then stained with FITC-, PE-, and APC-conjugated mAbs for 30 min at 4° C. To exclude the dead cells, 7-Amino-Actinomycin D (BD Bioscience) was added and incubated for 10 minutes before analysis. Expression of markers was determined by FACS Calibur (BD Bioscience) and FlowJo software (Tree Star).

[4] = system: CRM genes; assay: Transcriptional analysis of mouse heart allografts (microarray with IPA pathway analysis, Q-PCR of CRM genes); assay type: in vivo; settings: treatment group against untreated AR group
Procedure: We performed functional pathway analysis using Pathway-Express (PE). We used meta effect-size as fold change in PE to identify significant pathways. We used FDR<0.1 as a threshold for identifying significant pathways. We performed network analysis using IPA with option to only include “direct relationship” in order to avoid spurious connections due to “indirect relations”.
QRT-PCR for the CIRM module genes in mouse allografts was performed using a high-throughput RT-PCR instrument (BioMark; Fluidigm, San Francisco, Calif.). […] Data was analyzed using the BioMark RT-PCR Analysis Software Version 2.0. Using the delta Ct method, gene expression in each sample was calculated relative to the expression in a universal RNA sample (human universal RNA, Stratagene, CA). […]
For whole mouse genome expression analysis, Agilent Whole Mouse Genome 4×44K 60mer oligonucleotide arrays (G2519F, Agilent Technologies, Palo Alto, Calif.) were used. […] After purification, using the RNeasy mini kit (Qiagen), cRNA yield and Cy incorporation efficiency (specific activity) into the cRNA were determined using a NanoDrop Spectrophotometer (NanoDrop Technologies). cRNAs showing a yield >825 ng and a specific activity of 8-20 pmol/μg were selected for further processing. […]

[5] = system: INPP5D; settings: van Leuven et al., 2010; cited from earlier work

SMILES	hazard ratio for graft survival ([1]; Cox-proportional hazard analysis, treated compared to untreated AR)	allograft survival compared to untreated AR [1]	Median survival [1]	number of infiltrating cells (immunohistochemistry) relative to cyclosporine ([2]; POD 7, compared to treatment with cyclosporine (p>0.05))	number of infiltrating cells (immunohistochemistry) [2]	number of infiltrating B220+ B cells compared to cyclosporine [3]	number of CD45+ infiltrating cells [3]	number of infiltrating B220+ B cells [3]	number of infiltrating CD4+ T cells [3]	number of infiltrating CD8+ T cells [3]	number of infiltrating CD11c+ dendritic cells [3]	number of infiltrating F4/80+ macrophages [3]	number of infiltrating NK1.1+ natural killer cells [3]	pathways affected (IPA pathway analysis of down-regulated genes) [4]	reduction of expression of INPP5D [5]
Cc1nc(Nc2ncc(C(=O)Nc3c(C)cccc3Cl)s2)cc(N2CCN(CCO)CC2)n1 [dasatinib]	66.26	significantly extended allograft survival	24.5 days	equivalent	significantly reduced; also recorded: fewer infiltrating cells	reduced	significantly reduced	significantly reduced	reduced	reduced	significantly reduced	significantly reduced	significantly reduced	cell cycle-related pathways	
COc1c(C)c2c(c(O)c1C/C=C(\C)CCC(=O)OCCN1CCOCC1)C(=O)OC2 [Mycophenolate mofetil]															more than 2 fold
CC(C)c1c(C(=O)Nc2ccccc2)c(-c2ccccc2)c(-c2ccc(F)cc2)n1CC[C@@H](O)C[C@@H](O)CC(=O)O [atorvastatin]		significantly extended allograft survival	17 days		significantly reduced; also recorded: fewer infiltrating cells	reduced	significantly reduced	significantly reduced	reduced	reduced	significantly reduced	significantly reduced	significantly reduced	monocyte- and macrophage-related pathways	
